Assay results published in US5318993A, “Antihyperlipidemic benzoquinones” (Bristol-Myers Squibb Company, priority 1993, dated 1994).
Like-named read-outs stand apart in the source and are kept apart here.

Legend:
HepG2 cells = assay: Cholesterol synthesis in HepG2 cell culture model (14C-acetate incorporation); format: cell-based, human; conditions: for activity at 10 µM: Homo sapiens, HepG2 cells, 4 hours incubation, read-out: Cholesterol Biosynthesis
Method: (§1) The human hepatoma HepG2 cell culture model was employed to compare the intrinsic activities of the synthetic analogues relative to the tocotrienols. HepG2 cells were incubated with the indicated compounds for 4 hours at 10 μM. Cholesterol synthesis was assayed by ^14 C-acetate incorporation over the final hour of incubation, and HMG-CoA reductase suppression (specific activity) was assayed in the microsomal fraction isolated from parallel cultures at the end of the 4 hour incubation.

[1] = In vivo hypocholesterolemic activity in normocholesterolemic chickens (serum lipid parameters); conditions: for response vs control in vivo at 4 mg/kg/day: Gallus gallus, po, 672 h
Method: (§2) Hypocholesterolemic activity was evaluated for the synthetic analogues using γ-tocotrienol as a control in normocholesterolemic chickens. Newborn male chicks (6-10 for each group) were raised on a standard corn-soybean-based control diet for two weeks and then were switched to either control or experimental diets for four weeks. Drug treatment consisted of the addition of test compound to the corn-soybean-based. At the end of the feeding period, all the birds were fasted (about 36 hours) and refed (about 48 hours) to induce cholesterolgenic enzymes prior to sacrifice. The specific activity of HMG-CoA reductase, total serum cholesterol levels, HDL/LDL cholesterol pools, and triglyceride levels (data not shown) were examined (Table II).
(§3) Effects of BMS Compounds on Lipid Parameters in Male
(§4) Orally dosed for 4-weeks at 4 mg/kg/day

HMG-CoA reductase [2] = target: T1, HMG-CoA reductase (Homo sapiens, UniProt P04035); assay: HMG-CoA reductase suppression (specific activity, microsomal fraction of HepG2 cells); format: cell-based; conditions: 4 hours incubation, read-out: HMGR Suppression
T1 construct: assayed in the microsomal fraction isolated from parallel cultures; endogenous in cells; host or cells: HepG2 (human hepatoma)
T1 sequence (P04035 1-888): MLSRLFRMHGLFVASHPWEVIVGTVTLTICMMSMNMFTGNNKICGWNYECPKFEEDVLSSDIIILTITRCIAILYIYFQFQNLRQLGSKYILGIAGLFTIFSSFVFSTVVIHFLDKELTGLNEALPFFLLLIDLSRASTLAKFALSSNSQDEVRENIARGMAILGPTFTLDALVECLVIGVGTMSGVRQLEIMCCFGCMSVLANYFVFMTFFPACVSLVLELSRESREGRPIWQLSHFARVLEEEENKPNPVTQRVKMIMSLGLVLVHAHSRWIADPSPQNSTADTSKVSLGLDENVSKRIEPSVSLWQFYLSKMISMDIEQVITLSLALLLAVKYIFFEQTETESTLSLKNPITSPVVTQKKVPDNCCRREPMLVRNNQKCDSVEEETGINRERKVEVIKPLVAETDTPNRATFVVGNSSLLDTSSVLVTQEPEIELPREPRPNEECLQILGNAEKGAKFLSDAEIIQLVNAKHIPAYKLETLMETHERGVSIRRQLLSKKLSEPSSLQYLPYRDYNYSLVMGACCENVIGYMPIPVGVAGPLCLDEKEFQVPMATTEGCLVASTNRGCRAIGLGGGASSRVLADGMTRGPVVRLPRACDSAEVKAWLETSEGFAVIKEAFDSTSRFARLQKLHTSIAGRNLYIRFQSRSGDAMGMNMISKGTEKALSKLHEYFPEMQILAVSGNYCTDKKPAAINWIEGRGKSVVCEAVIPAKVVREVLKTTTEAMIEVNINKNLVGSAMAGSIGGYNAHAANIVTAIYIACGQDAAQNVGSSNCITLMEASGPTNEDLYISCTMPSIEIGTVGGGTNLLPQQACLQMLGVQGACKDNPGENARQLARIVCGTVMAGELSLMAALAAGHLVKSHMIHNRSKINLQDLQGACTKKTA
Method: as §1

HMG-CoA reductase [3] = assay: HMG-CoA reductase specific activity in normocholesterolemic chickens; format: in vivo; conditions: male chickens, orally dosed for 4 weeks at 4 mg/kg/day
Method: as §2, §3, §4

[4] = man, cited from earlier work
[5] = tested on: submitochondrial particles; conditions: in words; cited from earlier work
LDL = conditions: in words; cited from earlier work
[6] = tested on: rat liver microsomes and mitochondrial membranes; conditions: in words; cited from earlier work
[7] = male chickens, orally dosed for 4 weeks at 4 mg/kg/day, read-out: HDL-C
[8] = male chickens, orally dosed for 4 weeks at 4 mg/kg/day, read-out: LDL-C
[9] = male chickens, orally dosed for 4 weeks at 4 mg/kg/day, total serum cholesterol, read-out: Tot.-C

SMILES	activity at 10 µM (HepG2 cells) [%]	response vs control in vivo at 4 mg/kg/day [1, 7] [%]	response vs control in vivo at 4 mg/kg/day [1, 8] [%]	response vs control in vivo at 4 mg/kg/day [1, 9] [%]	other results
CC(C)=CCC/C(C)=C/CC/C(C)=C/CC1=CC(=O)C=CC1=O [Example 10, 2-(3,7,11-Trimethyl-2(E),6(E),10-Dodecatrienyl)-2,5-Cyclohexadiene-4-Dione]	95	–	–	–	–
CC(C)=CCC/C(C)=C/CC/C(C)=C/CCC(O)CCC1=CC(=O)C=CC1=O (stereo not drawn) [Example 11, 2-(3-Hydroxy-7,11,15-Trimethyl-6(E),10(E),14-Hexadecatrienyl)-2,5-Cyclohexadiene-1,4-Dione]	75	96.9	80.1	87.2	–
CC(C)=CCC/C(C)=C/CC/C(C)=C/CCC(O)CCC1=CC(=O)C(C)=C(C)C1=O (stereo not drawn) [Example 12, 5-(3-Hydroxy-7,11,15-Trimethyl-6(E),10(E),14-Hexadecatrienyl)-2,3-Dimethyl-2,5-Cyclohexadiene-1,4-Dione]	3	95	73	82.7	activity at 10 µM (HMG-CoA reductase [2]): 74%
CC1=C(C)C(=O)C(CCC(C)(O)CC/C=C(\C)CCc2cccc(C(F)(F)F)c2)=CC1=O (stereo not drawn) [Example 13, 5-(3,7-Dimethyl-3-Hydroxy-9-[3-(Trifluoromethyl)phenyl]-6(E)-Nonenyl)-2,3-Dimethyl-2,5-cyclohexadiene-1,4-Dione]	–	75.6	32	57.7	HMGR (HMG-CoA reductase [3]): 59.9 % of Control
CC(C)=CCC/C(C)=C/CC/C(C)=C/CCC(C)(O)CCC1=CC(=O)c2ccccc2C1=O (stereo not drawn) [Example 14, 2-(3-Hydroxy-3,7,11,15-Tetramethyl-6(E),10(E),14-Hexadecatrienyl)-1,4-Naphthalene-1,4-dione]	10	94.7	69.4	82.4	–
CC(C)=CCC/C(C)=C/CC/C(C)=C/CCC(C)(O)CCC1=CC(=O)C(C)=C(C)C1=O (stereo not drawn) [Example 15, 5-(3-Hydroxy-3,7,11,15-Tetramethyl-6(E),10(E),14-Hexadecatrienyl)-2,3-Dimethyl-2,5-cyclohexadiene-1,4-Dione]	89	90.5	59	76.7	activity in the cholesterol suppression assay in vitro (HepG2 cells; in words): very active in the cholesterol suppression assay in vitro; cholesterol/HMGR suppression in vitro, relative to γ-tocotrienol (HepG2 cells; in words, refers to Table I): very similar cholesterol/HMGR suppression in vitro and in vivo; activity at 10 µM (HMG-CoA reductase [2]): 79%; activity in the chick model, relative to γ-tocotrienol ([1]; in words): comparable activity to γ-tocotrienol in the chick model; cholesterol/HMGR suppression in vivo, relative to γ-tocotrienol ([1]; in words, refers to Table II): very similar cholesterol/HMGR suppression in vitro and in vivo; HMGR (HMG-CoA reductase [3]): 67.4 % of Control
CC(C)=CCC/C(C)=C/CC/C(C)=C/CCC(C)(O)CCC1=CC(=O)C=CC1=O (stereo not drawn) [Example 16, 2-(3-Hydroxy-3,7,11,15-Tetramethyl-6(E),10(E),14-Hexadecatrienyl)-2,5-cyclohexadiene-1,4-Dione Hydrate]	74	95.8	94.9	93.8	–
COC1=C(OC)C(=O)C(CCCCCCCCCCO)=C(C)C1=O [Idebenone]	–	–	–	–	absorption rate ([4]; in words): absorbed rapidly; intestinal absorption ([4]; in words): low intestinal absorption; bioavailability ([4]; low intestinal absorption): 15-30%
COc1c(O)c(C)c(C/C=C(\C)CC/C=C(\C)CC/C=C(\C)CC/C=C(\C)CC/C=C(\C)CC/C=C(\C)CC/C=C(\C)CC/C=C(\C)CC/C=C(\C)CCC=C(C)C)c(O)c1OC [Ubiquinol]	–	–	–	–	lipid peroxidation inhibition [5]: inhibits lipid peroxidation
CC(C)=CCC/C(C)=C/CC/C(C)=C/CC/C(C)=C/CC1=C(C)C(=O)c2ccccc2C1=O [Vitamin K2, reference compound]	–	105	146	116	cholesterol levels in vivo ([1]; in words, Vitamin K2 (n=4), refers to Table II): appears to actually elevate cholesterol levels
COc1c(O)c(C)c(C/C=C(\C)CC/C=C(\C)CC/C=C(\C)CC/C=C(\C)CC/C=C(\C)CC/C=C(\C)CC/C=C(\C)CC/C=C(\C)CC/C=C(\C)CCC=C(C)C)c(O)c1OC [ubiquinol-10]	–	–	–	–	LDL oxidation inhibition (LDL): inhibitor of LDL oxidation; LDL oxidation inhibition efficiency relative to tocopherol (LDL): much more efficient than tocopherol
COC1=C(OC)C(=O)C(C/C=C(\C)CC/C=C(\C)CC/C=C(\C)CC/C=C(\C)CC/C=C(\C)CC/C=C(\C)CC/C=C(\C)CC/C=C(\C)CC/C=C(\C)CCC=C(C)C)=C(C)C1=O [ubiquinone]	–	–	–	–	effect on tocopherol [6]: sparing effect on tocopherol
CC(C)=CCC/C(C)=C/CC/C(C)=C/CC[C@]1(C)CCc2cc(O)c(C)c(C)c2O1 [γ-Tocotrienol, reference compound]	29	–	–	–	activity at 10 µM (HMG-CoA reductase [2]): 65%; response vs control in vivo at 4 mg/kg/day ([1]; read-out: HDL-C): 87%; response vs control in vivo at 4 mg/kg/day ([1]; read-out: LDL-C): 54.8%; response vs control in vivo at 4 mg/kg/day ([1]; read-out: Tot.-C): 76.3%
